Results: US20240217981A1, “CRYSTALLINE COMPOUND OF MUSCARINIC ACETYLCHOLINE M1 RECEPTOR ANTAGONISTS” (Pipeline Therapeutics, Inc., priority 2021, published 2024)
In brackets after ≈: the same amount, converted by molar mass. Read-outs that look alike come from different tables or passages of the source.

How the values were obtained:
[1] = Kinetic solubility evaluation; format: physicochemical; conditions: for solubility / solubility at 1 h / solubility at 4 h / solubility at 24 h: thermodynamic from solid; for FC (Form change): residual solid by XRPD; for solubility at 1 h / solubility at 4 h / solubility at 24 h: read-out: S (Solubility of freebase)
Method: In these experiments, about 20 mg of Freebase Type A was suspended in 4 mL of FaSSIF, FeSSIF, SGF and H2O, respectively. After rolling at 37° C. for 1 hr, 4 hrs and 24 hrs, the suspension was centrifuged and filtered through a 0.45 μm PTFE membrane. The residual solids were tested by XRPD and the supernatant was tested by HPLC and pH meter. Detailed procedure can be found in Table 15.

[2] = Physicochemical stability evaluation; conditions: for Form change: XRPD
Method: In these experiments, about 10 mg of Freebase Type A was stored at 25° C./60% RH, 40° C./75% RH for one week and 60° C./sealed for 24 hrs. After storage, the solids were tested by XRPD and HPLC.

human M3 receptor = human M3 receptor (Homo sapiens, UniProt P20309); assay: In vitro functional assay of muscarinic acetylcholine receptor activity (aequorin calcium flux, reversal of acetylcholine EC50 response); format: cell-based
Method: (§1) Primary compound plates were prepared in 100% DMSO in opaque 96-well plates (VWR) and serially diluted in half log increments. Secondary compound plates were prepared at 3× concentration in assay buffer. The compound (6-(3-(4,4-difluoro-4-(2-methoxypyridin-4-yl)butanoyl)-3,8-diazabicyclo[3.2.1]octan-8-yl)nicotinonitrile) was added to white, clear bottom tissue culture treated 96-well plates (Fisher Scientific). Coelenterazine-loaded cells were then added at 5×10^5 cells/well.
(§2) The compound and cells were incubated at room temperature for 30 min in the dark. Acetylcholine at the EC50 concentration was added and calcium flux measured using a FlexStation 3 (Molecular Devices). Sigmoidal dose-response curves were generated by measuring […] over 40 sec and calculating the area under the curve. Dose response curves and IC50 values were generated using Prism (GraphPad). The compound was tested at a final concentration range of 100 μM to 10 μM in 0.10% DMSO.
(§3) CHO-K1 cells stably expressing human M2, M3 and M4 receptors, respectively, with aequorin (Perkin Elmer) were used to assess a test compound's ability to dose-dependently reverse the EC50 acetylcholine response. The IC50 of the compound was calculated from the dose response curve.

human M4 receptor = biological target: T1, human M4 receptor (Homo sapiens, UniProt P08173); assay: as above; format: cell-based
T1 sequence (P08173 1-479): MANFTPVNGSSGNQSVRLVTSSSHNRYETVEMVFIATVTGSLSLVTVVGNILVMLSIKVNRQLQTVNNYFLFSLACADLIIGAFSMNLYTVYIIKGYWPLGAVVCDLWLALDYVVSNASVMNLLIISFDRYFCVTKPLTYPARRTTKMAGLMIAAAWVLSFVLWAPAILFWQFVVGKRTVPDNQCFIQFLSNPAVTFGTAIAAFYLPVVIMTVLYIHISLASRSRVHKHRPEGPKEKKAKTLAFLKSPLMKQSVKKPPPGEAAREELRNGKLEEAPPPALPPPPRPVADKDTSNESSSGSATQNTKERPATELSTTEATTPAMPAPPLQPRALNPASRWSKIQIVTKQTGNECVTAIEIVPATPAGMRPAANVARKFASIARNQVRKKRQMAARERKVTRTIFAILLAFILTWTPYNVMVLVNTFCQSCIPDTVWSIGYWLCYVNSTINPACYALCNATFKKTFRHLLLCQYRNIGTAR
Method: as §1, §2, §3

human M2 receptor = biological target: T2, human M2 receptor (Homo sapiens, UniProt P08172); assay: as above; format: cell-based; conditions: CHO-K1 cells expressing human M2 receptor with aequorin; acetylcholine at EC50
T2 sequence (P08172 1-466): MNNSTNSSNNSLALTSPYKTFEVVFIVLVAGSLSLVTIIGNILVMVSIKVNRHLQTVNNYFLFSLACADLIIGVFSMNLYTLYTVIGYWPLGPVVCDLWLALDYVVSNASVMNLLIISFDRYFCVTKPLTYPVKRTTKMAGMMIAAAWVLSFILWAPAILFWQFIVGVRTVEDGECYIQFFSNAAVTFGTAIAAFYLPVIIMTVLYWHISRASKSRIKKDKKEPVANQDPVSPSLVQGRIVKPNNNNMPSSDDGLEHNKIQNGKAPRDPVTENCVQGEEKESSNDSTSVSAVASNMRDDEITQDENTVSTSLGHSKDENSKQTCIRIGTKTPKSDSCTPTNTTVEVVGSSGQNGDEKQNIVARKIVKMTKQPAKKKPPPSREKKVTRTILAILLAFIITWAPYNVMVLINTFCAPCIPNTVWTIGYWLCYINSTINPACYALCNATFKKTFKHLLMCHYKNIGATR
Method: as §1, §2, §3

[3] = Hygroscopicity evaluation by DVS test; format: physicochemical
Method: Hygroscopicity of Freebase Type A was evaluated by DVS test. […] For the minus weight change observed in the desorption curve, it might be related to sample loss or instrument fluctuation.

human M1 receptor = biological target: T3, human M1 receptor (Homo sapiens, UniProt P11229); assay: In vitro functional assay of muscarinic acetylcholine receptor activity (aequorin calcium flux, reversal of acetylcholine EC50 response); format: cell-based
T3 sequence (P11229 1-460): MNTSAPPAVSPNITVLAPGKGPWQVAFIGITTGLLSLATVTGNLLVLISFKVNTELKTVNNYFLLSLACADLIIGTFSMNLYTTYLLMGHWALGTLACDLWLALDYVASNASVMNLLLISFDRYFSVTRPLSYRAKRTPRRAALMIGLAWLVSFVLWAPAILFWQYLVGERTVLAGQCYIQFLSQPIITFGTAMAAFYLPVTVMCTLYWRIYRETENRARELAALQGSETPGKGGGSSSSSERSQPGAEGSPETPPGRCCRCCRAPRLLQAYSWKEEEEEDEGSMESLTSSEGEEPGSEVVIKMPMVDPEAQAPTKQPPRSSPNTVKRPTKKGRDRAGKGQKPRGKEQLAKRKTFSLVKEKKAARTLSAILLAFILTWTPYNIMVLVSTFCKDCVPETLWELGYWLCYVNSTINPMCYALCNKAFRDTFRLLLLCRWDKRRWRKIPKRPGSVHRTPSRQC
Method: CHO-K1 cells stably expressing human M1 receptor with aequorin (Perkin Elmer) were grown in F12 media (Gibco) containing 10% FBS (ATCC), 0.4 mg/mL geneticin (Sigma-Aldrich) and 0.25 mg/mL Zeocin (Invitrogen). Cells were grown as per the manufacturer's protocol. For compound testing, cells were grown to confluency and detached gently with Accutase (Sigma-Aldrich) followed by centrifugation for 5 min at 150×g. Cells were then re-suspended in assay buffer (i.e. DMEM/F-12 HEPES without phenol red (Invitrogen) with 0.1% BSA (Sigma-Aldrich)) at a density of 5×10^6 cells/ml. Under sterile conditions, 5 μM coelenterazine (Invitrogen) was added to the cells, mixed, then incubated at room temperature protected from light, with gentle agitation, for 4 h.
Primary compound plates were prepared in 100% DMSO in opaque 96-well plates (VWR) and serially diluted in half log increments. Secondary compound plates were prepared at 3× concentration in assay buffer. […]
as §2, with “Dose response curves and IC50 values were generated using Prism (GraphPad). The compound was tested at a final concentration range of 100 μM to 10 μM in 0.10% DMSO.” left out

[4] = 25° C./60% RH, 40° C./75% RH for one week and 60° C./sealed for 24 hrs

Chain of human M3 receptor (P20309 whole entry): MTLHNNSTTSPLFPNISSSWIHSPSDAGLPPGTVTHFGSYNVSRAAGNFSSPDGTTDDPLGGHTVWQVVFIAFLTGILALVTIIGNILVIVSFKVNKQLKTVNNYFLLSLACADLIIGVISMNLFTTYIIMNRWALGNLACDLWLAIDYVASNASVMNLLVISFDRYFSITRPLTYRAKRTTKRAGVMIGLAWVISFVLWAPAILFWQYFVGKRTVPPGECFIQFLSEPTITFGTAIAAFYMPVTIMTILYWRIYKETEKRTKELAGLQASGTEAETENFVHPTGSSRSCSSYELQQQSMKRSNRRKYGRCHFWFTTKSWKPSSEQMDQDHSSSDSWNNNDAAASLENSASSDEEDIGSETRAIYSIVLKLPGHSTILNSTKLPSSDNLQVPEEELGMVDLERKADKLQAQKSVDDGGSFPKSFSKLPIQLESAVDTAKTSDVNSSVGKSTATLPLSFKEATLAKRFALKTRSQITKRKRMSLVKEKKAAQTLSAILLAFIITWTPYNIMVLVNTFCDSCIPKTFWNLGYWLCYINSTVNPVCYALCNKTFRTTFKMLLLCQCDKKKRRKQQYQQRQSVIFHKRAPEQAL

With COc1cc(C(F)(F)CCC(=O)N2CC3CCC(C2)N3c2ccc(C#N)cn2)ccn1 [Compound, 6-(3-(4,4-difluoro-4-(2-methoxypyridin-4-yl)butanoyl)-3,8-diazabicyclo[3.2.1]octan-8-yl)nicotinonitrile] the “solubility rank order of media, from high to low” value ([1]; FaSSIF, FeSSIF, SGF and H2O, 37° C.) was “SGF>FeSSIF>FaSSIF>H2O”, the “form change after rolling in tested media” value ([1]; XRPD, tested media, 1, 4, and 24 hrs) was “no form change was observed” and the solubility ([1]; pH 1.77, simulated gastric fluid, SGF, 37° C., over 1 hr, 4 hrs and 24 hrs, read-out: solubility in SGF) was ≤ 150 µg/mL. The solubility ([1]; pH 6.95, water, H2O, 37° C., read-out: solubility in H2O) was 20 µg/mL (≈ 46.8 µM), the “FC (Form change)” value ([1]; FaSSIF, 37° C., 1 hr) was “No” and the “FC (Form change)” value ([1]; FaSSIF, 37° C., 4 hrs) was “No”. The “FC (Form change)” value ([1]; FaSSIF, 37° C., 24 hrs) was “No”, the “FC (Form change)” value ([1]; FeSSIF, 37° C., 1 hr) was “No” and the “FC (Form change)” value ([1]; FeSSIF, 37° C., 4 hrs) was “No”. The “FC (Form change)” value ([1]; FeSSIF, 37° C., 24 hrs) was “No”, the “FC (Form change)” value ([1]; H2O, 37° C., 1 hr) was “No” and the “FC (Form change)” value ([1]; H2O, 37° C., 4 hrs) was “No”. For the same molecule, the “FC (Form change)” value ([1]; H2O, 37° C., 24 hrs) was “No”, the “FC (Form change)” value ([1]; SGF, 37° C., 1 hr) was “No” and the “FC (Form change)” value ([1]; SGF, 37° C., 4 hrs) was “No”. The “FC (Form change)” value ([1]; SGF, 37° C., 24 hrs) was “No”, the solubility at 1 h ([1]; simulated gastric fluid, SGF (pH 1.77), 37° C., 1 hr) was 140 µg/mL (≈ 328 µM) and the solubility at 4 h ([1]; simulated gastric fluid, SGF (pH 1.77), 37° C., 4 hrs) was 150 µg/mL (≈ 351 µM). It also gave a solubility at 24 h ([1]; simulated gastric fluid, SGF (pH 1.77), 37° C., 24 hrs) of 140 µg/mL (≈ 328 µM), a solubility at 1 h ([1]; FaSSIF (pH 6.47), 37° C., 1 hr) of 30 µg/mL (≈ 70.2 µM) and a solubility at 4 h ([1]; FaSSIF (pH 6.47), 37° C., 4 hrs) of 30 µg/mL (≈ 70.2 µM). It also gave a solubility at 24 h ([1]; FaSSIF (pH 6.47), 37° C., 24 hrs) of 30 µg/mL (≈ 70.2 µM), a solubility at 1 h ([1]; FeSSIF (pH 4.99), 37° C., 1 hr) of 60 µg/mL (≈ 140 µM) and a solubility at 4 h ([1]; FeSSIF (pH 4.99), 37° C., 4 hrs) of 60 µg/mL (≈ 140 µM). For the same molecule, the solubility at 24 h ([1]; FeSSIF (pH 4.99), 37° C., 24 hrs) was 60 µg/mL (≈ 140 µM), the solubility at 1 h ([1]; water, H2O (pH 6.95), 37° C., 1 hr) was 20 µg/mL (≈ 46.8 µM) and the solubility at 4 h ([1]; water, H2O (pH 6.95), 37° C., 4 hrs) was 20 µg/mL (≈ 46.8 µM). The solubility at 24 h ([1]; water, H2O (pH 6.95), 37° C., 24 hrs) was 20 µg/mL (≈ 46.8 µM), the “HPLC purity Of initial” value ([2]; 25° C./60% RH, 1 w) was 100.00% and the “HPLC purity after storage” value ([2]; 25° C./60% RH, 1 w) was 100.00 area %. For the same molecule, the “form change after storage (XRPD)” value [2, 4] was “no form change was observed”, the “purity decrease after storage (HPLC)” value [2, 4] was “no purity decrease was detected” and the “HPLC purity Of initial” value ([2]; 40° C./75% RH, 1 w) was 100.00%. The “HPLC purity after storage” value ([2]; 40° C./75% RH, 1 w) was 100.00 area %, the “HPLC purity Of initial” value ([2]; 60° C./sealed, 24 hrs) was 100.00% and the “HPLC purity after storage” value ([2]; 60° C./sealed, 24 hrs) was 100.00 area %. The Form change ([2]; 25° C./60% RH, 1 w) was “No”, the Form change ([2]; 40° C./75% RH, 1 w) was “No” and the Form change ([2]; 60° C./sealed, 24 hrs) was “No”. It also gave an IC50 (human M3 receptor) of 0.1 to 1 µM, an IC50 (human M4 receptor) of 0.1 to 1 µM and an IC50 (human M2 receptor) of 1 to 10 µM. The water uptake ([3]; 80% RH/25° C., sorption cycle from 0% RH to 95% RH) was 0.01%, the hygroscopicity ([3]; DVS test) was “non-hygroscopic” and the “form change after the DVS test” value ([3]; XRPD) was “no form change was observed”. For the same molecule, the IC50 (human M1 receptor) was < 0.01 µM.
